Data published in PubChem BioAssay (NCI).
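Briefly, cells in 96-well plates were exposed to five compound concentrations for 48 h, and endpoints were estimated by linear interpolation. TGI: concentration producing complete growth inhibition.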

How the values were obtained:
Experiment in all cases: NCI anticancer screen, dose series, 48 h
MDA-N = tested on: MDA-N
OVCAR-5 ovarian = tested on: OVCAR-5 ovarian
KM12 colon = tested on: KM12 colon
HCT-116 colon = tested on: HCT-116 colon
A498 renal = tested on: A498 renal
CCRF-CEM leukemia = tested on: CCRF-CEM leukemia
SR leukemia = tested on: SR leukemia
U251 CNS = tested on: U251 CNS
K-562 leukemia = tested on: K-562 leukemia
PC-3 prostate = tested on: PC-3 prostate
SW-620 colon = tested on: SW-620 colon
OVCAR-8 ovarian = tested on: OVCAR-8 ovarian
SK-OV-3 ovarian = tested on: SK-OV-3 ovarian
COLO 205 colon = tested on: COLO 205 colon
MDA-MB-435 = tested on: MDA-MB-435
OVCAR-4 ovarian = tested on: OVCAR-4 ovarian
SK-MEL-2 melanoma = tested on: SK-MEL-2 melanoma
NCI-H522 lung = tested on: NCI-H522 lung
SK-MEL-5 melanoma = tested on: SK-MEL-5 melanoma
CAKI-1 renal = tested on: CAKI-1 renal
A549 NSCLC = tested on: A549 NSCLC
IGROV1 ovarian = tested on: IGROV1 ovarian
SF-539 CNS = tested on: SF-539 CNS
NCI-H460 lung = tested on: NCI-H460 lung
HCT-15 colon = tested on: HCT-15 colon
DU-145 prostate = tested on: DU-145 prostate
OVCAR-3 ovarian = tested on: OVCAR-3 ovarian
HCC-2998 colon = tested on: HCC-2998 colon
SNB-19 CNS = tested on: SNB-19 CNS
T-47D breast = tested on: T-47D breast
SN12C renal = tested on: SN12C renal
SF-295 CNS = tested on: SF-295 CNS
ACHN renal = tested on: ACHN renal
SK-MEL-28 melanoma = tested on: SK-MEL-28 melanoma
SF-268 CNS = tested on: SF-268 CNS
HOP-62 NSCLC = tested on: HOP-62 NSCLC
MOLT-4 leukemia = tested on: MOLT-4 leukemia
MALME-3M melanoma = tested on: MALME-3M melanoma
SNB-75 CNS = tested on: SNB-75 CNS
EKVX NSCLC = tested on: EKVX NSCLC
NCI/ADR-RES ovarian = tested on: NCI/ADR-RES ovarian
NCI-H226 lung = tested on: NCI-H226 lung
RXF 393 renal = tested on: RXF 393 renal
HT29 colon = tested on: HT29 colon
MCF7 breast = tested on: MCF7 breast
MDA-MB-231 breast = tested on: MDA-MB-231 breast
HS 578T breast = tested on: HS 578T breast
M14 melanoma = tested on: M14 melanoma
786-0 renal = tested on: 786-0 renal
LOX IMVI melanoma = tested on: LOX IMVI melanoma
UACC-62 melanoma = tested on: UACC-62 melanoma
TK-10 renal = tested on: TK-10 renal
HOP-92 NSCLC = tested on: HOP-92 NSCLC
RPMI-8226 leukemia = tested on: RPMI-8226 leukemia
NCI-H23 lung = tested on: NCI-H23 lung
UACC-257 melanoma = tested on: UACC-257 melanoma
HL-60(TB) leukemia = tested on: HL-60(TB) leukemia
UO-31 renal = tested on: UO-31 renal

## O=C(Nc1ccc(Cl)cc1)c1cc2c(cc1Cl)Sc1nccn1S2(=O)=O
MDA-N
  TGI: > 100 µM
OVCAR-5 ovarian
  TGI: > 100 µM
KM12 colon
  TGI: > 100 µM
HCT-116 colon
  TGI: > 100 µM
A498 renal
  TGI: > 100 µM
CCRF-CEM leukemia
  TGI: > 100 µM
SR leukemia
  TGI: > 100 µM
U251 CNS
  TGI: 39.6 µM
K-562 leukemia
  TGI: > 100 µM
PC-3 prostate
  TGI: > 100 µM
SW-620 colon
  TGI: > 100 µM
OVCAR-8 ovarian
  TGI: > 100 µM
SK-OV-3 ovarian
  TGI: > 100 µM
COLO 205 colon
  TGI: > 100 µM
MDA-MB-435
  TGI: > 100 µM
OVCAR-4 ovarian
  TGI: > 100 µM
SK-MEL-2 melanoma
  TGI: > 100 µM
NCI-H522 lung
  TGI: > 100 µM
SK-MEL-5 melanoma
  TGI: > 100 µM
CAKI-1 renal
  TGI: > 100 µM
A549 NSCLC
  TGI: > 100 µM
IGROV1 ovarian
  TGI: > 100 µM
SF-539 CNS
  TGI: > 100 µM
NCI-H460 lung
  TGI: > 100 µM
HCT-15 colon
  TGI: > 100 µM
DU-145 prostate
  TGI: > 100 µM
OVCAR-3 ovarian
  TGI: > 100 µM
HCC-2998 colon
  TGI: > 100 µM
SNB-19 CNS
  TGI: > 100 µM
T-47D breast
  TGI: > 100 µM
SN12C renal
  TGI: > 100 µM
SF-295 CNS
  TGI: > 100 µM
ACHN renal
  TGI: > 100 µM
SK-MEL-28 melanoma
  TGI: > 100 µM
SF-268 CNS
  TGI: > 100 µM
HOP-62 NSCLC
  TGI: > 100 µM
MOLT-4 leukemia
  TGI: > 100 µM
MALME-3M melanoma
  TGI: > 100 µM
SNB-75 CNS
  TGI: 25.2 µM
EKVX NSCLC
  TGI: > 100 µM
NCI/ADR-RES ovarian
  TGI: > 100 µM
NCI-H226 lung
  TGI: > 100 µM
RXF 393 renal
  TGI: > 100 µM
HT29 colon
  TGI: > 100 µM
MCF7 breast
  TGI: > 100 µM
MDA-MB-231 breast
  TGI: > 100 µM
HS 578T breast
  TGI: 97.4 µM
M14 melanoma
  TGI: > 100 µM
786-0 renal
  TGI: > 100 µM
LOX IMVI melanoma
  TGI: > 100 µM

## Cc1cc(C)n(C(=O)CSc2nc3ccc(I)cc3c(=O)n2Cc2ccccc2)n1
MDA-N
  TGI: > 100 µM
OVCAR-5 ovarian
  TGI: > 100 µM
KM12 colon
  TGI: > 100 µM
HCT-116 colon
  TGI: > 100 µM
A498 renal
  TGI: 63.4 µM
CCRF-CEM leukemia
  TGI: > 100 µM
SR leukemia
  TGI: > 100 µM
U251 CNS
  TGI: > 100 µM
K-562 leukemia
  TGI: > 100 µM
UACC-62 melanoma
  TGI: > 100 µM
PC-3 prostate
  TGI: 63.7 µM
SW-620 colon
  TGI: > 100 µM
OVCAR-8 ovarian
  TGI: 70.3 µM
SK-OV-3 ovarian
  TGI: > 100 µM
COLO 205 colon
  TGI: > 100 µM
MDA-MB-435
  TGI: > 100 µM
OVCAR-4 ovarian
  TGI: > 100 µM
SK-MEL-2 melanoma
  TGI: > 100 µM
TK-10 renal
  TGI: > 100 µM
NCI-H522 lung
  TGI: 62.1 µM
SK-MEL-5 melanoma
  TGI: > 100 µM
CAKI-1 renal
  TGI: 22.2 µM
A549 NSCLC
  TGI: > 100 µM
HOP-92 NSCLC
  TGI: 53 µM
IGROV1 ovarian
  TGI: 78.8 µM
RPMI-8226 leukemia
  TGI: > 100 µM
SF-539 CNS
  TGI: > 100 µM
NCI-H460 lung
  TGI: > 100 µM
HCT-15 colon
  TGI: > 100 µM
DU-145 prostate
  TGI: > 100 µM
OVCAR-3 ovarian
  TGI: > 100 µM
HCC-2998 colon
  TGI: > 100 µM
SNB-19 CNS
  TGI: > 100 µM
T-47D breast
  TGI: > 100 µM
SN12C renal
  TGI: > 100 µM
SF-295 CNS
  TGI: > 100 µM
ACHN renal
  TGI: > 100 µM
NCI-H23 lung
  TGI: > 100 µM
SK-MEL-28 melanoma
  TGI: > 100 µM
SF-268 CNS
  TGI: 71 µM
HOP-62 NSCLC
  TGI: 70.3 µM
MOLT-4 leukemia
  TGI: > 100 µM
SNB-75 CNS
  TGI: 63.4 µM
EKVX NSCLC
  TGI: > 100 µM
NCI/ADR-RES ovarian
  TGI: > 100 µM
NCI-H226 lung
  TGI: > 100 µM
RXF 393 renal
  TGI: 62.4 µM
HT29 colon
  TGI: > 100 µM
MCF7 breast
  TGI: > 100 µM
MDA-MB-231 breast
  TGI: 66.3 µM
UACC-257 melanoma
  TGI: > 100 µM
HS 578T breast
  TGI: 44.6 µM
M14 melanoma
  TGI: > 100 µM
HL-60(TB) leukemia
  TGI: > 100 µM
786-0 renal
  TGI: > 100 µM
LOX IMVI melanoma
  TGI: > 100 µM

## CC1(C)NC(C)(C)/C(=N\O)C(=NO)/C1=N/O
MDA-N
  TGI: > 100 µM
OVCAR-5 ovarian
  TGI: > 100 µM
KM12 colon
  TGI: > 100 µM
HCT-116 colon
  TGI: > 100 µM
CCRF-CEM leukemia
  TGI: > 100 µM
SR leukemia
  TGI: > 100 µM
U251 CNS
  TGI: > 100 µM
K-562 leukemia
  TGI: > 100 µM
UACC-62 melanoma
  TGI: > 100 µM
PC-3 prostate
  TGI: > 100 µM
SW-620 colon
  TGI: > 100 µM
OVCAR-8 ovarian
  TGI: > 100 µM
SK-OV-3 ovarian
  TGI: > 100 µM
COLO 205 colon
  TGI: > 100 µM
MDA-MB-435
  TGI: > 100 µM
OVCAR-4 ovarian
  TGI: > 100 µM
SK-MEL-2 melanoma
  TGI: > 100 µM
TK-10 renal
  TGI: > 100 µM
SK-MEL-5 melanoma
  TGI: > 100 µM
CAKI-1 renal
  TGI: > 100 µM
A549 NSCLC
  TGI: > 100 µM
HOP-92 NSCLC
  TGI: > 100 µM
IGROV1 ovarian
  TGI: > 100 µM
RPMI-8226 leukemia
  TGI: > 100 µM
SF-539 CNS
  TGI: > 100 µM
NCI-H460 lung
  TGI: > 100 µM
HCT-15 colon
  TGI: > 100 µM
DU-145 prostate
  TGI: > 100 µM
OVCAR-3 ovarian
  TGI: > 100 µM
HCC-2998 colon
  TGI: > 100 µM
SNB-19 CNS
  TGI: > 100 µM
T-47D breast
  TGI: > 100 µM
SN12C renal
  TGI: > 100 µM
SF-295 CNS
  TGI: > 100 µM
ACHN renal
  TGI: > 100 µM
NCI-H23 lung
  TGI: > 100 µM
SK-MEL-28 melanoma
  TGI: > 100 µM
SF-268 CNS
  TGI: > 100 µM
HOP-62 NSCLC
  TGI: > 100 µM
MOLT-4 leukemia
  TGI: > 100 µM
MALME-3M melanoma
  TGI: > 100 µM
UO-31 renal
  TGI: > 100 µM
SNB-75 CNS
  TGI: > 100 µM
EKVX NSCLC
  TGI: > 100 µM
NCI/ADR-RES ovarian
  TGI: > 100 µM
NCI-H226 lung
  TGI: > 100 µM
RXF 393 renal
  TGI: > 100 µM
HT29 colon
  TGI: > 100 µM
MCF7 breast
  TGI: > 100 µM
MDA-MB-231 breast
  TGI: > 100 µM
UACC-257 melanoma
  TGI: > 100 µM
HS 578T breast
  TGI: > 100 µM
M14 melanoma
  TGI: > 100 µM
HL-60(TB) leukemia
  TGI: > 100 µM
786-0 renal
  TGI: > 100 µM
LOX IMVI melanoma
  TGI: > 100 µM
